Test results reported in patent publication US20160102058A1, “FLUORO-PERHEXILINE COMPOUNDS AND THEIR THERAPEUTIC USE” (THE UNIVERSITY COURT OF THE UNIVERSITY OF ABERDEEN, priority 2013, published 2016).

Assays:
[1] = cited from earlier work
[2] = Rat liver microsomal (RLM) stability assay; format: in vitro ADME; conditions: both sexes, pH 7.4, rat liver microsomes, 3 μM test compound
Description: (§1) The metabolic stability of fluoroperhexiline derivatives was measured by determination of the rate of compound disappearance when incubated in the presence of both human and rat liver microsomes. Liver microsomes are prepared from the endoplasmic reticulum of hepatocytes and are the primary source of the most important enzymes (cytochrome P450) involved in drug metabolism. Study of drug stability in the presence of liver microsomes is accepted as a valuable model permitting rapid prediction of in vivo drug stability.
(§2) Human and rat liver microsomes were obtained from a commercial source. Test compounds (3 μM) were incubated with pooled liver microsomes (male and female). Samples were incubated for a 45 minute period and removed at 5 time points and test compounds were analysed by LC-MS/MS.
(§3) Microsomes (final protein concentration 0.5 mg/mL), 0.1 M phosphate buffer pH 7.4, and test compound (final concentration 3 μM; diluted from 10 mM stock solution to give a final DMSO concentration of 0.25%) were incubated at 37° C. prior to the addition of NADPH (final concentration 1 mM) to initiate the reaction. The final incubation volume was 25 μL. A control incubation was included for each compound tested, where 0.1 M phosphate buffer pH 7.4 was added instead of NADPH. The control compounds testosterone and 7-hydroxycoumarin were included in each experiment and all incubations were performed singularly for each compound.
(§4) Each compound was incubated for 0, 5, 15, 30, and 45 minutes. The control (minus NADPH) was incubated for 45 minutes only. The reactions were stopped by the addition of 50 μL methanol containing internal standard at the appropriate time points. The incubation plates were centrifuged at 2500 rpm for 20 minutes at 4° C. to precipitate the protein.
(§5) Following protein precipitation, the sample supernatants were combined in cassettes of up to 4 compounds and analysed using standard LC-MS/MS conditions.
(§6) From a plot of the natural logarithm of the peak area ratio (i.e., the ratio of compound peak area:internal standard peak area) against time, the gradient of the line was determined. Subsequently, half-life and intrinsic clearance were calculated using the equations below:
(§7) Eliminated Rate Constant (k)=(−Gradient).
(§8) Half-Life (t1/2) (min)=0.063/k.
(§9) Intrinsic Clearance (CLint) […]=(V×0.693)/t1/2. • wherein V=Incubation Volume (μL/mg microsomal protein).

[3] = Human liver microsomal (HLM) stability assay; format: in vitro ADME
Description: as §1, §2, §3, §4, §5, §6, §7, §8, §9

CYP2D6 = target: T1, CYP2D6 (Homo sapiens, UniProt P10635); experiment: Cytochrome P450 2D6 reaction phenotyping (Bactosomes); format: in vitro ADME
T1 construct: purchased Cypex Ltd; host or cells: bacterial membranes (Bactosomes)
T1 sequence (P10635 whole entry): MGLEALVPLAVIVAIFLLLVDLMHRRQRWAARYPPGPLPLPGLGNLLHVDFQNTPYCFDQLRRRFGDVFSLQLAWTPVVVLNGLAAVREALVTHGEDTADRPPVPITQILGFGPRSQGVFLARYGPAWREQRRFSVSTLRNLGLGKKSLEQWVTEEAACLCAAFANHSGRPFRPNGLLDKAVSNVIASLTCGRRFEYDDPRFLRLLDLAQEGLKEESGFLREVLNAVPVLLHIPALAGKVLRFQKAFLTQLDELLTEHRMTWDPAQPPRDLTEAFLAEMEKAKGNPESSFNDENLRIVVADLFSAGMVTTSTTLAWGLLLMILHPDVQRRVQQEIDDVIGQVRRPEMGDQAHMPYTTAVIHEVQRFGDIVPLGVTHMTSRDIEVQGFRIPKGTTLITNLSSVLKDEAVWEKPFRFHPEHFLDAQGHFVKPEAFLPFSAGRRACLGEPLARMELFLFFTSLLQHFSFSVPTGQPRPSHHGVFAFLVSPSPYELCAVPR
Description: The stability of fluoroperhexiline derivatives towards CYP2D6-mediated metabolism was measured by determination of the rate of compound disappearance when incubated in the presence CYP2D6 recombinant isoform expression systems (Bactosomes™). The percentage of parent compound remaining at each time point (following correction for any loss in the incubations with the control bactosomes) is calculated. cDNA expressed human CYP450 enzyme preparations co-expressed with human NADPH cytochrome P450 reductase (Bactosomes™) are supplied by Cypex Ltd. Bactosomes™ are stored at −80° C. prior to use. […] Incubations are also performed using control bactosomes (no P450 enzymes present) to reveal any non-enzymatic degradation. The final incubation volume is 25 μL. A compound known to be metabolised specifically by CYP2D6 isoform is used as a control compound. Each compound is incubated singly for 0, 5, 15, 30 and 45 min with each isoform. The reactions are stopped by the addition of 50 μL methanol containing internal standard at the appropriate time points. The incubation plates are centrifuged at 2500 rpm for 20 min at 4° C. to precipitate the protein. Following protein precipitation, the sample supernatants are combined in cassettes of up to four compounds and analysed using Cyprotex generic LC-MS/MS conditions. The natural logarithm of the peak area ratio (which has been corrected for any loss in the incubations with the control bactosomes) is plotted against time and the gradient of the line determined. Elimination Rate Constant (k)=(−Gradient).

## O[C@H]1CC[C@@H](C(CC2CCCCN2)C2CCCCC2)CC1 (relative stereo) [cis-OH-perhexiline, cis-4-[1-(cyclohexyl)-2-(2-piperidinyl)ethyl]cyclohexanol]
[1]; plasma
  plasma AUC of cis-OH-perhexiline after (−)-perhexiline compared with (+)-perhexiline: 28 fold

## C1CCC(C(CC2CCCCN2)C2CCCCC2)CC1 (single isomer, unassigned; (+)) [(+)-perhexiline]
[1]; EM
  ratio of systemic exposure of (+)- to (−)-perhexiline, extensive metabolisers: 1.5
[1]; PM
  ratio of systemic exposure of (+)- to (−)-perhexiline, poor metabolisers: 2.3
[1]; plasma
  plasma AUC, (+)-perhexiline relative to (−)-perhexiline: 2.5 fold

## FC1(F)CCC(C(CC2CCCCN2)C2CCC(F)(F)CC2)CC1 (centres unmarked) [FPER-002, 2-(2,2-Bis(4,4-Difluorocyclohexyl)ethyl)piperidine]
[2]; read-out: CLint (μL/min/mg protein) RLM
  microsomal CLint at 3 μM: 0.8 µL/min/mg
[2]; read-out: T½ (min) RLM
  half-life at 3 μM: 1650 min
[3]; both sexes, pH 7.4, human liver microsomes, 3 μM test compound, read-out: CLint (μL/min/mg protein) HLM
  microsomal CLint at 3 μM: 0.3 µL/min/mg
[3]; both sexes, pH 7.4, human liver microsomes, 3 μM test compound, read-out: T½ (min) HLM
  half-life at 3 μM: 4210 min
[3]; human and rat liver microsomes, versus perhexiline
  metabolic stability compared with perhexiline (in words): substantial increase in metabolic stability
CYP2D6; human, pH 7.4, recombinant CYP2D6 Bactosomes, 5 μM test compound, read-out: T½
  half-life at 5 μM: 151 min
CYP2D6; versus perhexiline
  stability towards CYP2D6 compared with perhexiline (in words): substantial increase in stability towards CYP2D6
